In US20090203693A1, “THERAPEUTIC AGENT FOR LIVER FIBROSIS” (Eisai R & D Management Co., Ltd., priority 2006, published 2009):

Tests used:
[1] = test system: thioacetamide-induced hepatic fibrillization in Balb/cAnN female mice; experiment: Mouse models of thioacetamide-induced cirrhosis (Azan staining of liver sections); format: in vivo; settings: orally once daily at 1 or 3 mg/kg, thioacetamide i.p. twice a week for five weeks
Procedure: Thioacetamide (purchased from Tokyo Chemical Industry) was intraperitoneally administered at 150 mg/kg for the first week and 200 mg/kg for the next second to fifth weeks to Balb/cAnN female mice (purchased from Charles River Laboratories) twice a week. The test substance (Compound 3) was suspended in 0.5% methylcellulose aqueous solution and orally administered once daily at 1 or 3 mg/kg. Three days after the final thioacetamide administration, livers were removed from the mice and subjected to 10% neutral buffered formalin fixation followed by Azan staining (staining technique is described in “Medical Technology, supp., new technique for staining” (Ishiyaku Publisher, 1999)). The degree of fibrillization was examined by observation of the stained tissue sections. Experiments were conducted for a group without the administration of thioacetamide (6 examples), a group administered with thioacetamide but a test substance (3 examples), a group administered with Compound 3 at 1 mg/kg (6 examples) and a group administered with Compound 3 at 3 mg/kg (3 examples).

[2] = biological target: T1, His6-DDR2 (cytoplasmic domain of human DDR2) (Homo sapiens, UniProt Q16832); experiment: Determination of DDR2 kinase inhibitory activity (His6-DDR2 tyrosine autophosphorylation, HTRF); format: biochemical; settings: cell free, ATP, room temperature 10 minutes, HTRF detection; read-out: IC50 (concentration of the test substance required for inhibiting His6-DDR2 kinase activity by 50%)
T1 construct: cytoplasmic domain of DDR2 having 6 histidines fused to the N-terminus thereof; made in house; host or cells: Sf9 insect cells (baculovirus, pFastBac-HT)
T1 sequence (Q16832 422-855 limits assumed): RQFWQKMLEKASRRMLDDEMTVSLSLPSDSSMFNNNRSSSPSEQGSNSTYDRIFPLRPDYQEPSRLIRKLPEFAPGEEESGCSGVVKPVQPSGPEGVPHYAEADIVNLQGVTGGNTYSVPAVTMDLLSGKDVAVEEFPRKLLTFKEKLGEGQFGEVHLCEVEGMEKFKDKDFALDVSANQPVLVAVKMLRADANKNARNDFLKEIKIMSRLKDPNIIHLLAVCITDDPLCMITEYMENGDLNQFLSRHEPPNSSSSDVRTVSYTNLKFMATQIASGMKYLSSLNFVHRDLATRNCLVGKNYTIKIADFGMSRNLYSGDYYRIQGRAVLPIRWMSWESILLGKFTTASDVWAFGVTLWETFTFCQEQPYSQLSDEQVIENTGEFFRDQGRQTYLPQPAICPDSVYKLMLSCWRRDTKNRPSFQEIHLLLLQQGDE
Description: A DNA fragment of cytoplasmic domain of human DDR2 (SEQ ID NO: 1) was isolated by PCR method (Expand High Fidelity (purchased from Roche)) according to a conventional technique using human brain cDNA library (purchased from Clontech) as a template and SEQ ID NO:3: 5′-[…]-3′ and SEQ ID NO:4: 5′-[…]-3′ (purchased from JBioS) as primers. This DNA fragment was inserted into a baculovirus transplacement vector (pFastBac™-HT (purchased from Invitrogen)) to obtain a recombinant construct. Insect cells (Spodoptera frugiperda 9 (Sf9 cells)) were transfected with this recombinant construct, thereby preparing a DDR2 recombinant baculovirus solution. For preparation of a recombinant baculovirus, we referred to a standard textbook (Bac-to-Bac Baculovirus Expression System (Invitrogen)).
The above-described DDR2 recombinant Baculovirus solution (0.07 mL) was added to Sf9 cells (7×10^7 cells) suspended in 2.5% FBS-containing SF-900II medium (purchased from Invitrogen) and shake-cultured at 27° C. for 72 hours. Then, this DDR2 recombinant Baculovirus-infected cells were subjected to centrifugation at 1,600 rpm at 4° C. for 6 minutes and the supernatant was removed. The precipitated infected cells were suspended in 10 mL of ice-cold PBS and centrifuged at 1,600 rpm at 4° C. for 6 minutes to remove the supernatant. The precipitated infected cells were suspended in 5 mL of ice-cold lysis buffer (50 mM Tris-HCl (pH 8.5), 5 mM 2-mercaptoethanol, 100 mM KCl, 1 mM PMSA, 1% (v/v) NP40), and centrifuged at 10,000 rpm at 4° C. for 10 minutes to obtain the supernatant.
This supernatant was added to a Ni-NTA agarose column (1.5 mL (purchased from Qiagen)) equilibrated with 5 mL of buffer A (20 mM Tris-HCl (pH 8.5), 5 mM 2-mercaptoethanol, 500 mM KCl, 20 mM imidazole, 10% (v/v) glycerol). This column was sequentially washed with 10 mL of buffer A, 2 mL of buffer B (20 mM Tris-HCl (pH8.5), 5 mM 2-mercaptoethanol, 1 M KCl, 10% (v/v) glycerol) and 2 mL of buffer A. Subsequently, 4 mL of buffer C (20 mM Tris-HCl (pH 8.5), 5 mM 2-mercaptoethanol, 100 mM KCl, 100 mM imidazole, 10% (v/v) glycerol) was added to obtain an eluate. This eluate was placed in a dialysis membrane (purchased from Spectrum Medical Industries) and dialyzed against 1 L of dialysis buffer (20 mM Tris-HCl, 10% (v/v) glycerol, 1 mM dithiothreitol, 0.1 mM Na3VO4, 0.1 mM EGTA) at 4° C. overnight. After dialysis, a portion of the eluate was subjected to SDS-PAGE and an amount of the recombinant protein detected at a molecular weight of about 40 kDa (His6-DDR2 (cytoplasmic domain of DDR2 having 6 histidines fused to the N-terminus thereof)) by Coomassie brilliant blue staining was quantitated using BSA as a standard substance.
To each well of a 96-well black half plate (purchased from Corning, Product No: 3694), 20 ng of His6-DDR2, 35 μL of 25 mM Hepes solution (pH 7.4) containing 14 mM MgCl2 and a test substance dissolved in dimethylsulfoxide (at 100-fold dilution with 1% BSA; 5 μL) were added to a total amount of 40 μL. To this, […] of 50 μM ATP (purchased with Sigma) diluted with 25 mM Hepes solution was added and incubated at room temperature for 10 minutes. Thereafter, 10 μL of 50 mM EDTA (pH 8.0) (purchased from Wako Pure Chemical Industries) was added to terminate the kinase reaction.
Tyrosine-phosphorylated DDR2 was detected using homogeneous time resolved fluorescence (HTRF) technique (Analytical Biochemistry, 269, 94-104, 1999). Specifically, to each well of the reaction solutions mentioned above, 20 μL of 25 mM Hepes solution containing 1 M KF, 4.75 ng of europium cryptate-labeled anti-phosphorylated tyrosine antibody (Eu(K)-PT66) and 100 ng of XL665-labeled anti-His antibody (XL665-Anti-His) was added. This reaction solution was incubated at room temperature overnight. Thereafter, fluorescence intensities of each well at 665 nm and 620 nm were measured under irradiation at an excitation wavelength of 337 nm using Discovery HTRF microplate analyzer (from Packard). […]

IC50 [2]: 0.18 nM
Compound: COc1cc2nccc(Oc3ccc(NC(=O)Nc4nccs4)cc3)c2cc1OC [Compound 3, N-(2-thiazole)-N′-(4-((6,7-dimethoxy-4-quinolinyl)oxy)phenyl)urea]
degree of hepatic fibrillization (observation of stained tissue sections) [1]: suppressed hepatic fibrillization in a dose-dependent manner
